Test results taken from PubChem BioAssay AID248 (DTP/NCI, 2004).
Toxic doses and inconclusive results are not listed. Cut-off read from the data, not from the text of the source: active = T/C of 150% or more; inactive = T/C below 125%.

Tested on: L1210 leukemia ip in BDF1 mice, survival T/C
Experiment: NCI In Vivo Anticancer Drug Screen. Data for tumor model L1210 Leukemia (intraperitoneal) in B6D2F1 (BDF1) mice
Details: endpoint: mean survival time, higher = longer survival
In short: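 Transplantable tumor model; survival measured in treated vs vehicle control mice. Value = treated/control.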

[1] = dose: 100.0 mg/kg/injection, schedule: Q04DX003 (ip), vehicle: saline with Tween-80
[2] = dose: 200.0 mg/kg/injection, schedule: Q04DX003 (ip), vehicle: saline with Tween-80
[3] = dose: 400.0 mg/kg/injection, schedule: Q04DX003 (ip), vehicle: saline with Tween-80
[4] = dose: 100.0 mg/kg/injection, schedule: Q04DX002 (ip), vehicle: Klucel (hydroxypropylcellulose) (HPC)
[5] = dose: 200.0 mg/kg/injection, schedule: Q04DX002 (ip), vehicle: Klucel (hydroxypropylcellulose) (HPC)
[6] = dose: 400.0 mg/kg/injection, schedule: Q04DX002 (ip), vehicle: Klucel (hydroxypropylcellulose) (HPC)
[7] = dose: 100.0 mg/kg/injection, schedule: Q01DX009 (ip), vehicle: Klucel (hydroxypropylcellulose) (HPC)
[8] = dose: 200.0 mg/kg/injection, schedule: Q01DX009 (ip), vehicle: Klucel (hydroxypropylcellulose) (HPC)
[9] = dose: 400.0 mg/kg/injection, schedule: Q01DX009 (ip), vehicle: Klucel (hydroxypropylcellulose) (HPC)
[10] = dose: 400.0 mg/kg/injection, schedule: Q04DX002 (ip), vehicle: saline with Tween-80
[11] = dose: 100.0 mg/kg/injection, schedule: Q01DX001 (ip), vehicle: carboxymethylcellulose (CMC)
[12] = dose: 100.0 mg/kg/injection, schedule: Q04DX003 (ip), vehicle: Klucel (hydroxypropylcellulose) (HPC)
[13] = dose: 200.0 mg/kg/injection, schedule: Q04DX003 (ip), vehicle: Klucel (hydroxypropylcellulose) (HPC)
[14] = dose: 400.0 mg/kg/injection, schedule: Q04DX003 (ip), vehicle: Klucel (hydroxypropylcellulose) (HPC)
[15] = dose: 100.0 mg/kg/injection, schedule: Q01DX009 (ip), vehicle: saline with Tween-80
[16] = dose: 200.0 mg/kg/injection, schedule: Q01DX009 (ip), vehicle: saline with Tween-80
[17] = dose: 400.0 mg/kg/injection, schedule: Q01DX009 (ip), vehicle: saline with Tween-80
[18] = dose: 50.0 mg/kg/injection, schedule: Q01DX001 (ip), vehicle: saline
[19] = dose: 100.0 mg/kg/injection, schedule: Q01DX001 (ip), vehicle: saline
[20] = dose: 200.0 mg/kg/injection, schedule: Q01DX001 (ip), vehicle: saline
[21] = dose: 400.0 mg/kg/injection, schedule: Q01DX001 (ip), vehicle: saline
[22] = dose: 100.0 mg/kg/injection, schedule: Q04DX002 (ip), vehicle: saline with Tween-80
[23] = dose: 50.0 mg/kg/injection, schedule: Q01DX009 (ip), vehicle: saline with Tween-80
[24] = dose: 100.0 mg/kg/injection, schedule: Q04DX003 (ip), vehicle: saline
[25] = dose: 200.0 mg/kg/injection, schedule: Q04DX003 (ip), vehicle: saline
[26] = dose: 400.0 mg/kg/injection, schedule: Q04DX003 (ip), vehicle: saline

Measured: T/C

CC(=O)NC(=S)Nc1ccccc1
inactive: dose: 12.5 mg/kg/injection, schedule: Q04DX003 (ip), vehicle: Klucel (hydroxypropylcellulose) (HPC) 95 % of control | dose: 25.0 mg/kg/injection, schedule: Q04DX003 (ip), vehicle: Klucel (hydroxypropylcellulose) (HPC) 117 % of control | dose: 50.0 mg/kg/injection, schedule: Q04DX003 (ip), vehicle: Klucel (hydroxypropylcellulose) (HPC) 101 % of control

CC(=O)/C(C)=C/c1ccccc1
inactive: dose: 100.0 mg/kg/injection, schedule: Q01DX001 (ip), vehicle: other 107 % of control | [1] 100 % of control | dose: 200.0 mg/kg/injection, schedule: Q01DX001 (ip), vehicle: other 96 % of control | [2] 105 % of control | dose: 400.0 mg/kg/injection, schedule: Q01DX001 (ip), vehicle: other 91 % of control | [3] 100 % of control

O=C(Nc1ccccn1)Nc1ccc([N+](=O)[O-])cc1[N+](=O)[O-]
inactive: [4] 108 % of control | [5] 104 % of control | [6] 97 % of control

CN(C)c1nn2c(-c3ccccc3)nnc2o1
inactive: dose: 100.0 mg/kg/injection, schedule: Q01DX009 (ip), vehicle: saline 94 % of control | dose: 200.0 mg/kg/injection, schedule: Q01DX009 (ip), vehicle: saline 102 % of control | dose: 400.0 mg/kg/injection, schedule: Q01DX009 (ip), vehicle: saline 100 % of control

COC(=O)c1ccccc1NC(=O)Nc1cc(OC)ccc1OC
inactive: [7] 98 % of control | [8] 102 % of control | [9] 93 % of control

C[Si](C)(C)c1cccc(-c2ccccc2)c1
inactive: dose: 25.6 mg/kg/injection, schedule: Q04DX002 (ip), vehicle: saline with Tween-80 93 % of control | dose: 64.0 mg/kg/injection, schedule: Q04DX002 (ip), vehicle: saline with Tween-80 104 % of control | [1] 101 % of control | dose: 160.0 mg/kg/injection, schedule: Q04DX002 (ip), vehicle: saline with Tween-80 97 % of control | [2] 92 % of control | [10] 97 % of control | [3] 101 % of control

Cc1ccccc1OCc1nc(-c2ccc(N(CCCl)CCCl)cc2)cs1
inactive: [11] 101 % of control | dose: 200.0 mg/kg/injection, schedule: Q01DX001 (ip), vehicle: carboxymethylcellulose (CMC) 113 % of control | dose: 400.0 mg/kg/injection, schedule: Q01DX001 (ip), vehicle: carboxymethylcellulose (CMC) 104 % of control

Cc1ccc(NC(=O)c2cccc(C(=O)Nc3ccc(C)c(Cl)c3)c2)cc1Cl
inactive: [7] 91 % of control | [12] 95 % of control | [8] 97 % of control | [13] 96 % of control | [9] 92 % of control | [14] 106 % of control

C#CCOS(C)(=O)=O
inactive: dose: 10.0 mg/kg/injection, schedule: Q01DX009 (ip), vehicle: saline 108 % of control | dose: 10.0 mg/kg/injection, schedule: Q04DX002 (ip), vehicle: saline 107 % of control | dose: 20.0 mg/kg/injection, schedule: Q01DX009 (ip), vehicle: saline 124 % of control | dose: 20.0 mg/kg/injection, schedule: Q04DX002 (ip), vehicle: saline 103 % of control | dose: 40.0 mg/kg/injection, schedule: Q04DX002 (ip), vehicle: saline 103 % of control

COc1cc(OC)cc(C(=O)Cl)c1
inactive: [15] 100 % of control | [16] 103 % of control | [17] 86 % of control

COc1ccc2c(c1)C(CC(=O)O)=CC2
inactive: [18] 100 % of control | [19] 96 % of control | [20] 105 % of control | [21] 107 % of control

O=C(/C=C\c1cccc2ccccc12)c1ccc2ccccc2c1
inactive: [15] 100 % of control | [22] 88 % of control | [16] 90 % of control | dose: 200.0 mg/kg/injection, schedule: Q04DX002 (ip), vehicle: saline with Tween-80 88 % of control | [17] 93 % of control | [10] 88 % of control

c1ccc(-c2ccn(C3CCCCC3)c2-c2ccccc2)cc1
inactive: dose: 100.0 mg/kg/injection, schedule: Q01DX001 (ip), vehicle: saline with Tween-80 87 % of control | dose: 200.0 mg/kg/injection, schedule: Q01DX001 (ip), vehicle: saline with Tween-80 91 % of control | dose: 400.0 mg/kg/injection, schedule: Q01DX001 (ip), vehicle: saline with Tween-80 92 % of control

CCCCS(=O)(=O)N1CCC(C)CC1
inactive: [4] 87 % of control | [5] 91 % of control | [6] 94 % of control

CCOC(=O)COCC(C)=O
inactive: [23] 92 % of control | [15] 96 % of control | [16] 96 % of control

CC1=Nc2onc(C)c2N=C(C)C1
inactive: [15] 109 % of control | [1] 100 % of control | [16] 94 % of control | [2] 93 % of control | [17] 96 % of control | [3] 95 % of control

Nc1ccc(I)cc1C(=O)O
inactive: [18] 103 % of control | [19] 103 % of control | [20] 101 % of control | [21] 97 % of control

CCCCN1C(=O)C2CCc3ccncc3C2C1=O (stereo not drawn)
inactive: [24] 103 % of control | [25] 97 % of control | [26] 103 % of control

Cc1cc(Cl)nc2ccc3ccccc3c12
inactive: [19] 96 % of control | [20] 93 % of control | [21] 89 % of control

Cc1ccc(C2(C)CC/C(=N/N=C3/CCC(C)(c4ccc(C)c(C)c4)c4cc(C)c(C)cc43)c3cc(C)c(C)cc32)cc1C (stereo not drawn)
inactive: [19] 93 % of control | [20] 101 % of control | [21] 98 % of control

NNC(=O)c1cc2ccncc2c2sc3ccccc3c12
inactive: [24] 92 % of control | [25] 88 % of control | [26] 97 % of control

CN(C)/N=N/c1ncn(C2CCCO2)c1C(N)=O (stereo not drawn)
inactive: dose: 200.0 mg/kg/injection, schedule: Q01DX005 (ip), vehicle: saline 115 % of control

CN1C(=O)C/C(=C/[N+](=O)[O-])c2ccccc21
inactive: dose: 50.0 mg/kg/injection, schedule: Q01DX001 (ip), vehicle: carboxymethylcellulose (CMC) 101 % of control | [11] 97 % of control

CCOC1CC2(c3ccccc3)OC(=O)OC12c1ccccc1 (stereo not drawn)
inactive: dose: 25.0 mg/kg/injection, schedule: Q04DX002 (ip), vehicle: saline with Tween-80 115 % of control | dose: 50.0 mg/kg/injection, schedule: Q04DX002 (ip), vehicle: saline with Tween-80 101 % of control | [22] 115 % of control

CCOC(=O)C(C#N)=P(c1ccccc1)(c1ccccc1)c1ccccc1
inactive: [23] 96 % of control | [15] 88 % of control | [16] 96 % of control

O=C(O)CNC(=O)C(CSCc1ccccc1)NC(=O)OCc1ccccc1 (stereo not drawn)
inactive: [12] 97 % of control | [14] 86 % of control

Brc1ccccc1N=Nc1ccccc1Br
inactive: [1] 92 % of control | [2] 91 % of control | [3] 107 % of control

O=C(O)c1c(Cl)c(Cl)c(Cl)c(C(=O)O)c1Cl
inactive: dose: 50.0 mg/kg/injection, schedule: Q01DX009 (ip), vehicle: Klucel (hydroxypropylcellulose) (HPC) 98 % of control | [7] 97 % of control | [12] 93 % of control | [8] 98 % of control | [13] 91 % of control

O=C(O)C1CC=CCCC1 (stereo not drawn)
inactive: [7] 96 % of control | [12] 101 % of control | [8] 96 % of control | [13] 101 % of control | [9] 93 % of control | [14] 98 % of control

Cc1c(N)cccc1N
inactive: dose: 12.5 mg/kg/injection, schedule: Q01DX009 (ip), vehicle: saline with Tween-80 119 % of control | dose: 12.5 mg/kg/injection, schedule: Q04DX003 (ip), vehicle: saline with Tween-80 95 % of control | dose: 25.0 mg/kg/injection, schedule: Q01DX009 (ip), vehicle: saline with Tween-80 108 % of control | dose: 25.0 mg/kg/injection, schedule: Q04DX003 (ip), vehicle: saline with Tween-80 117 % of control | dose: 50.0 mg/kg/injection, schedule: Q04DX003 (ip), vehicle: saline with Tween-80 117 % of control
